Data taken from patent US20240351986A1, “UREA COMPOUND CONTAINING 2-HETEROAROMATIC RING SUBSTITUTION, PREPARATION METHOD THEREFOR AND USE THEREOF” (SHANGHAI INSTITUTE OF MATERIA MEDICA, CHINESE ACADEMY OF …, priority 2021, published 2024).
Counter-ions that a name gives are not always drawn. Blank lines part the entries; values can stand above or below the compound they belong to.

Biological target: T1, Recombinant human CDK9/cyclin T1 (Homo sapiens, UniProt P50750)
T1 construct: purchased Carna bioscience 04-110
T1 sequence (P50750 whole entry): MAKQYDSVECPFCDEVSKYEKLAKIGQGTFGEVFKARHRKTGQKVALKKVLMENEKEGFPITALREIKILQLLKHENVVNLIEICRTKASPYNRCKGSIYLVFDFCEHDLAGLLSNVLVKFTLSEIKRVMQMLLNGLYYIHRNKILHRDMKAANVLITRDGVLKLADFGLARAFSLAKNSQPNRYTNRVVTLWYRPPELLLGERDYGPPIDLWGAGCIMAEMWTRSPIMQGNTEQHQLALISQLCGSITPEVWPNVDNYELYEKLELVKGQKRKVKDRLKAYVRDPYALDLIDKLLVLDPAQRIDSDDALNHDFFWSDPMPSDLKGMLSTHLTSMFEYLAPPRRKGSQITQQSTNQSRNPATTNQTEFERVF
T1 sequence (O60563 whole entry partner): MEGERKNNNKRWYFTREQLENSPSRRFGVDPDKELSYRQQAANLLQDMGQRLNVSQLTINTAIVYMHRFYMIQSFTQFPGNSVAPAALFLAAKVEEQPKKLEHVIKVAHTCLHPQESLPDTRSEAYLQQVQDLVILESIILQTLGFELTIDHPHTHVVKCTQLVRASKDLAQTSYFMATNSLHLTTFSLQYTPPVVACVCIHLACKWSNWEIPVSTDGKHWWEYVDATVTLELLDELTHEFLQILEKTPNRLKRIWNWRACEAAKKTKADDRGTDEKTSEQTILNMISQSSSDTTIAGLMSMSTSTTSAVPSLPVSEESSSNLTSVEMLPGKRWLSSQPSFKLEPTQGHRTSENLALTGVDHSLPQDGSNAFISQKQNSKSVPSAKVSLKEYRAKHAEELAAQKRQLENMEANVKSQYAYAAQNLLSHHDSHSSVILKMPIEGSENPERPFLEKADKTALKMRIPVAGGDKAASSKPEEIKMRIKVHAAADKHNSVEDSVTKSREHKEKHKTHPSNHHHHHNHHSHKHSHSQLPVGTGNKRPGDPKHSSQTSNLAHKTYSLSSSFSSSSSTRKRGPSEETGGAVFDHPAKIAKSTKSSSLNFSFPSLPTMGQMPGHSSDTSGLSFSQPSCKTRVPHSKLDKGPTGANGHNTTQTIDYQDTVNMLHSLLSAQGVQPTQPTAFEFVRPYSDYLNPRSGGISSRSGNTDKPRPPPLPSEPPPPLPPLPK
Test: CDK9 enzyme inhibitory activity (ADP-Glo kinase assay)
Format: biochemical
Conditions: CDK9 enzyme activity, average of two independent repeats; for inhibition at 0.01 µM / Inhibition rate at different concentrations (%) 10 nM: compound 10 nM; for inhibition at 0.01 µM: read-out: Inhibition rate at different concentrations (%) 10 nM; for inhibition at 0.1 µM: read-out: Inhibition rate at different concentrations (%) 100 nM; for Inhibition rate at different concentrations (%) 10 nM: 0.01 µM
Method: Experimental method: Recombinant human CDK9/cyclin T1 (Carna bioscience, Cat #04-110) was diluted with dilution buffer (20 mM Tris HCl (pH 7.5), 0.02% Triton X-100, 0.01% BSA, 2 mM DTT, 0.5 mM Na3VO4, 10% Glycerol) to […], the substrates CDK7/9 tide (ThermoFisher, Cat #PV5090) and ATP (sigmaaldrich, Cat #A1852) were diluted with assay buffer (25 mM Tris HCl (pH7.5), 10 mM MgCl2, 0.5 mM EGTA (pH 8), 0.5 mM Na3VO4, 5 mMb-glycerol phosphate, 0.1% Triton X-100, 2.5 mM DTT) to final concentrations of 100 μM and […] respectively, aliquot and set aside. 2 μl of diluted recombinant human CDK9/cyclin T1, 1 μl of test compound, and 2 μl of diluted substrate CDK7/9 tide containing ATP were added to the 384-well plate. […] The positive control was the well in which enzyme and substrate were co-incubated, and the negative control was the well in which dilution buffer and substrate were co-incubated. The inhibition rate was calculated according to the following formula.

SMILES: NC1CCC(NC(=O)Nc2cc(-c3ccc(F)cc3OC(F)(F)F)ccn2)CC1 (centres unmarked) [Example 12, 1-((1r,4r)-4-aminocyclohexyl)-3-(4-(4-fluoro-2-trifluoromethoxyphenyl)pyridin-2-yl) urea]
- inhibition at 0.01 µM: 19.2%
- inhibition at 0.1 µM (compound 100 nM): 69.1%

SMILES: COc1cc(-c2ccnc(NC(=O)NC3CCC(N)CC3)c2)ccc1F (centres unmarked) [Example 6, 1-((1r,4r)-4-aminocyclohexyl)-3-(4-(4-fluoro-3-methoxyphenyl)pyridin-2-yl)urea]
- inhibition at 0.01 µM: 32%
- inhibition at 0.1 µM (compound 100 nM): 74.1%

SMILES: COc1cc(F)ccc1-c1cc(NC(=O)NC2CCC(NC(=O)CN(C)C)CC2)ncc1Cl (centres unmarked) [Example 28, N-((1r,4r)-4-(3-(5-chloro-4-(4-fluoro-2-methoxyphenyl)pyridin-2-yl)ureido)cyclohexyl)-2-(dimethylamino)acetamide]
- inhibition at 0.01 µM: 29.5%
- inhibition at 0.1 µM (compound 100 nM): 84.3%

SMILES: NC1CCC(NC(=O)Nc2cc(-c3ccc(F)cc3Cl)ccn2)CC1 (centres unmarked) [Example 10, 1-((1r,4r)-4-aminocyclohexyl)-3-(4-(2-chloro-4-fluorophenyl)pyridin-2-yl) urea]
- inhibition at 0.01 µM: -12.6%
- inhibition at 0.1 µM (compound 100 nM): 94.6%

SMILES: COc1cc(F)ccc1-c1cc(NC(=O)NC2CCC(NCCO)CC2)ncc1Cl (centres unmarked) [Example 20, 1-(5-chloro-4-(4-fluoro-2-methoxyphenyl)pyridin-2-yl)-3-((1r,4r)-4-((2-hydroxyethyl)amino)cyclohexyl)urea]
- inhibition at 0.01 µM: 38.9%
- inhibition at 0.1 µM (compound 100 nM): 88.3%

SMILES: COCC(C)NC1CCC(NC(=O)Nc2cc(-c3ccc(F)cc3OC)c(Cl)cn2)CC1 (centres unmarked) [Example 21, 1-(5-chloro-4-(4-fluoro-2-methoxyphenyl)pyridin-2-yl)-3-((1r,4r)-4-((1-methoxypropan-2-yl)amino)cyclohexyl)urea]
- inhibition at 0.01 µM: 45.2%
- inhibition at 0.1 µM (compound 100 nM): 91%

SMILES: COc1cc(F)c(F)cc1-c1ccnc(NC(=O)NC2CCC(N)CC2)c1 (centres unmarked) [Example 5, 1-((1r,4r)-4-aminocyclohexyl)-3-(4-(4,5-difluoro-2-methoxyphenyl)pyridin-2-yl)urea]
- inhibition at 0.01 µM: 46.2%
- inhibition at 0.1 µM (compound 100 nM): 88.2%

SMILES: COc1cc(F)ccc1-c1cc(NC(=O)NC2CCC(NC(C)=O)CC2)ncc1C (centres unmarked) [Example 31, N-((1r,4r)-4-(3-(5-methyl-4-(4-fluoro-2-methoxyphenyl)pyridin-2-yl)ureido)cyclohexyl)acetamide]
- inhibition at 0.01 µM: 20.7%
- inhibition at 0.1 µM (compound 100 nM): 51.3%

SMILES: COc1cc(F)ccc1-c1cc(NC(=O)NC2CCC(NC(=O)OC(C)(C)C)CC2)ncn1 (centres unmarked) [Example 39, tert-butyl ((1r,4r)-4-(3-(6-(4-fluoro-2-methoxyphenyl)pyrimidin-4-yl)ureido)cyclohexyl)carbamate]
- inhibition at 0.01 µM: 28%
- inhibition at 0.1 µM (compound 100 nM): 55%

SMILES: COc1cc(F)ccc1-c1cc(NC(=O)NC2CCC(NC3CC3)CC2)ncc1Cl (centres unmarked) [Example 24, 1-(5-chloro-4-(4-fluoro-2-methoxyphenyl)pyridin-2-yl)-3-((1r,4r)-4-(cyclopropylamino)cyclohexyl)urea]
- inhibition at 0.01 µM: 37.8%
- inhibition at 0.1 µM (compound 100 nM): 73.1%

SMILES: COc1cc(F)ccc1-c1cc(NC(=O)NC2CCC(NC(C)=O)CC2)ncn1 (centres unmarked) [Example 40, N-((1r,4r)-4-(3-(6-(4-fluoro-2-methoxyphenyl)pyrimidin-4-yl)ureido)cyclohexyl)acetamide]
- inhibition at 0.01 µM: 25.3%
- inhibition at 0.1 µM (compound 100 nM): 59.5%

SMILES: COc1cc(F)ccc1-c1cc(NC(=O)NC2CCC(NCCC(F)(F)F)CC2)ncc1Cl (centres unmarked) [Example 26, 1-(5-chloro-4-(4-fluoro-2-methoxyphenyl)pyridin-2-yl)-3-((1r,4r)-4-((3,3,3-trifluoropropyl)amino)cyclohexyl)urea]
- inhibition at 0.01 µM: 39.3%
- inhibition at 0.1 µM (compound 100 nM): 82.5%

More lines, now with the values ahead:

- inhibition at 0.01 µM: 70.8%
- inhibition at 0.1 µM (compound 100 nM): 97.4%
SMILES: [2H]C([2H])([2H])C(=O)NC1CCC(NC(=O)Nc2cc(-c3cnn4c3CC(C)(C)C4)c(Cl)cn2)CC1 (centres unmarked) [Example 54, N-((1r,4r)-4-(3-(5-chloro-4-(5,5-dimethyl-5,6-dihydro-4H-pyrrolo[1,2-b]pyrazol-3-yl)pyridin-2-yl)ureido)cyclohexyl)acetamide-2,2,2-d3]

- Inhibition rate at different concentrations (%) 10 nM: 83.0%
- inhibition at 0.1 µM (compound 100 nM): 96%
SMILES: CC1(C)Cc2c(-c3cc(NC(=O)NC4CCC(N)CC4)ncc3Cl)cnn2C1 (centres unmarked) [Example 44, 1-((1r,4r)-4-aminocyclohexyl)-3-(5-chloro-4-(5,5-dimethyl-5,6-dihydro-4H-pyrrole[1,2-b]pyrazole-3-yl)pyridin-2-yl)urea]

- inhibition at 0.01 µM: 48%
- inhibition at 0.1 µM (compound 100 nM): 56%
SMILES: COCCNC1CCCC(NC(=O)Nc2cc(-c3cnn4c3CC(C)(C)C4)c(Cl)cn2)C1 (centres unmarked) [Example 80, 1-(5-chloro-4-(5,5-dimethyl-5,6-dihydro-4H-pyrrolo[1,2-b]pyrazol-3-yl)pyridin-2-yl)-3-(3-((2-methoxyethyl)amino)cyclohexyl)urea]

- inhibition at 0.01 µM: 63%
- inhibition at 0.1 µM (compound 100 nM): 92%
SMILES: CC(=O)N[C@H]1CC[C@H](NC(=O)Nc2cc(-c3cnn4c3CC(C)(C)C4)c(Cl)cn2)C1 (stereo in doubt) [Example 74, N-((1S,3S)-3-(3-(5-chloro-4-(5,5-dimethyl-5,6-dihydro-4H-pyrrolo[1,2-b]pyrazol-3-yl)pyridin-2-yl)ureido)cyclopentyl)acetamide]

- Inhibition rate at different concentrations (%) 10 nM: 58.0%
- Inhibition rate at different concentrations (%) 100 nM (compound 100 nM, 0.1 µM): 84.0%
SMILES: CC1(C)Cc2c(-c3cc(NC(=O)NC4CCC(N)CC4)ncc3Cl)cnn2C1 (centres unmarked) [Example 65, 1-((1s,4s)-4-aminocyclohexyl)-3-(5-chloro-4-(5,5-dimethyl-5,6-dihydro-4H-pyrrolo[1,2-b]pyrazol-3-yl)pyridin-2-yl)urea]

- inhibition at 0.01 µM: 33.8%
- inhibition at 0.1 µM (compound 100 nM): 79.5%
SMILES: CC1(C)Cc2c(-c3cc(NC(=O)NC4CCCNCC4)ncc3Cl)cnn2C1 (centres unmarked) [Example 69, 1-(azepan-4-yl)-3-(5-chloro-4-(5,5-dimethyl-5,6-dihydro-4H-pyrrolo[1,2-b]pyrazol-3-yl)pyridin-2-yl)urea]

- inhibition at 0.01 µM: 44%
- inhibition at 0.1 µM (compound 100 nM): 89%
SMILES: CC1(C)Cc2c(-c3cc(NC(=O)NC4CCNCC4)ncc3Cl)cnn2C1 [Example 68, 1-(5-chloro-4-(5,5-dimethyl-5,6-dihydro-4H-pyrrolo[1,2-b]pyrazol-3-yl)pyridin-2-yl)-3-(piperidin-4-yl)urea]

- inhibition at 0.01 µM: 28%
- inhibition at 0.1 µM (compound 100 nM): 56%
SMILES: CC1(C)Cc2c(-c3cc(NC(=O)NC4CCC(NC(=O)OC(C)(C)C)CC4)ncc3Cl)cnn2C1 (centres unmarked) [Example 64, tert-butyl (1s,4s)-4-(3-(5-chloro-4-(5,5-dimethyl-5,6-dihydro-4H-pyrrolo [1,2-b]pyrazol-3-yl)pyridin-2-yl)ureido)cyclohexylcarbamate]

- inhibition at 0.01 µM: 60.3%
- inhibition at 0.1 µM (compound 100 nM): 92%
SMILES: CC1(C)Cc2c(-c3cc(NC(=O)NC4CCCC(N)C4)ncc3Cl)cnn2C1 (centres unmarked) [Example 77, 1-(3-aminocyclohexyl)-3-(5-chloro-4-(5,5-dimethyl-5,6-dihydro-4H-pyrrolo[1,2-b]pyrazol-3-yl)pyridin-2-yl)urea]

- inhibition at 0.01 µM: 70%
- inhibition at 0.1 µM (compound 100 nM): 86%
SMILES: CC1(C)Cc2c(-c3cc(NC(=O)N[C@@H]4CC[C@@H](N)C4)ncc3Cl)cnn2C1 [Example 73, 1-((1S,3S)-3-aminocyclopentyl)-3-(5-chloro-4-(5,5-dimethyl-5,6-dihydro-4H-pyrrole[1,2-b]pyrazole-3-yl)pyridin-2-yl)urea]

- inhibition at 0.01 µM: 63%
- inhibition at 0.1 µM (compound 100 nM): 88%
SMILES: COCC[N+](C)(C)C1CCC(NC(=O)Nc2cc(-c3cnn4c3CC(C)(C)C4)c(Cl)cn2)CC1 (centres unmarked) [Example 91, (1r,4r)-4-(3-(5-chloro-4-(5,5-dimethyl-5,6-dihydro-4H-pyrrolo[1,2-b]pyrazol-3-yl)pyridin-2-yl)ureido)-N-(2-methoxyethyl)-N,N-dimethylcyclohexyl-1-ammonium salt]

- inhibition at 0.01 µM: 45%
- inhibition at 0.1 µM (compound 100 nM): 69%
SMILES: CC1(C)Cc2c(-c3cc(NC(=O)NCCCN)ncc3Cl)cnn2C1 [Example 72, 1-(3-aminopropyl)-3-(5-chloro-4-(5,5-dimethyl-5,6-dihydro-4H-pyrrolo [1,2-b]pyrazol-3-yl)pyridin-2-yl)urea]

- inhibition at 0.01 µM: 61.3%
- inhibition at 0.1 µM (compound 100 nM): 93.1%
SMILES: COCC(C)NC1CCC(NC(=O)Nc2cc(-c3cnn4c3CC(C)(C)C4)c(Cl)cn2)CC1 (centres unmarked) [Example 55, 1-(5-chloro-4-(5,5-dimethyl-5,6-dihydro-4H-pyrrolo[1,2-b]pyrazol-3-yl)pyridin-2-yl)-3-((1r,4r)-4-((1-methoxypropan-2-yl)amino)cyclohexyl)urea]

- inhibition at 0.01 µM: 49%
- inhibition at 0.1 µM (compound 100 nM): 87.3%
SMILES: CC(=O)NC1CCC(NC(=O)Nc2cc(-c3cnn(C)c3C)c(Cl)cn2)CC1 (centres unmarked) [Example 43, N-((1r,4r)-4-(3-(5-chloro-4-(1,5-dimethyl-1H-pyrazol-4-yl)pyridin-2-yl)ureido)cyclohexyl)acetamide]

- inhibition at 0.01 µM: 55%
- inhibition at 0.1 µM (compound 100 nM): 86.5%
SMILES: CC1(C)Cc2c(-c3cc(NC(=O)NC4CCC(NCCOC(F)(F)F)CC4)ncc3Cl)cnn2C1 (centres unmarked) [Example 57]

- inhibition at 0.01 µM: 58.3%
- inhibition at 0.1 µM (compound 100 nM): 85.1%
SMILES: CC1(C)Cc2c(-c3cc(NC(=O)NC4CCC(NCCF)CC4)ncc3Cl)cnn2C1 (centres unmarked) [Example 61, 1-(5-chloro-4-(5,5-dimethyl-5,6-dihydro-4H-pyrrolo[1,2-b]pyrazol-3-yl)pyridin-2-yl)-3-((1r,4r)-4-((2-fluoroethyl)amino)cyclohexyl)urea]
